According to patent US20260183408A1, “POLYPEPTIDE AND USE THEREOF” (SHENZHEN CHENYANG BIOLOGICAL TECHNOLOGY CO., LTD, priority 2022, published 2026):

Key:
CRS mice [1] = assay: Forced swimming test (FST); format: in vivo, mouse; settings: single intraperitoneal 3 nmol/g, 1 hour after treatment, compared with TAT-treated mice (FIG. 12)
Method: (§1) The C57BL/6J mice were horizontally fixed for 6 h (from 10 to 16 o'clock) in a first acrylic restraint which is cylindrical and flat-bottomed (25×90 mm) every day for 2 weeks. The filter had several slots which could adapt to the size of each mouse to firmly restrain the mouse and inhibit body movements of the limb and trunk without causing pain. Immediately after being restrained, the mice were sent back to their cages. Unrestrained mice (control) stayed in their cages when no CRS procedure was performed. Neither the control mice nor the CRS mice could have access to food and water during the CRS exposure.
The C57BL/6J mice were subjected to various stress including restraint (for 4 h), cage tilting (for 45 times, with 12 h each time), light-dark cycle reversal (once), flash (for 12 h), and dirty cage (for 2 times, with 14 h each time). The protocol lasted 6 weeks. Control mice were not subjected to corresponding stress.
The mice were treated with TAT or TAT-D2R-KL (single intraperitoneal administration at 3 nmol/g in both cases). […]
FST: The mice were placed in a cylinder (having a height of 70 cm and a diameter of 30 cm) made of organic glass and filled with water (with water temperature at 23±1° C.), wherein the water level was more than 30 cm from the bottom. The mice were recorded in video for 5 min, then the video was analyzed, and the immobility time was recorded. […]

SPS mice = assay: Corticosterone, cortisol, DA and 5-HT levels in hippocampus and cortex; format: in vivo, mouse
CRS mice [2] = assay: Elevated plus maze (EPM) test; format: in vivo, mouse; settings: single intraperitoneal 3 nmol/g, 1 hour later (FIG. 14)
Method: as §1
In order to evaluate the anti-anxiety-like effect of the polypeptide of the present invention, a CRS mouse model was established using the method in Example 6. […]
EPM: The device consisted of two open arms (25 cm×8 cm) and two closed arms (25 cm×8 cm) with the intersection as the central area (8 cm×8 cm), elevated 40 cm above the ground. One hour after the polypeptide treatment, the mice were placed in the central area facing an open arm, and their free movements were recorded for 5 min. […] The time spent in an open arm, the time spent in a closed arm, and the total moving distance of the mice were recorded.

D2R/5-HT2CR complex = target: T1, D2R/5-HT2CR complex (Homo sapiens, UniProt P28335); assay: Co-immunoprecipitation / Western blotting of polypeptide-treated 293T cells; format: cell-based; settings: 293T cells transfected with 5-HT2CR and D2R, in the presence of 5-HT2CR and D2R agonists, TAT as control (FIG. 6)
T1 construct: host or cells: human 293T cells
T1 sequence (P28335 33-458): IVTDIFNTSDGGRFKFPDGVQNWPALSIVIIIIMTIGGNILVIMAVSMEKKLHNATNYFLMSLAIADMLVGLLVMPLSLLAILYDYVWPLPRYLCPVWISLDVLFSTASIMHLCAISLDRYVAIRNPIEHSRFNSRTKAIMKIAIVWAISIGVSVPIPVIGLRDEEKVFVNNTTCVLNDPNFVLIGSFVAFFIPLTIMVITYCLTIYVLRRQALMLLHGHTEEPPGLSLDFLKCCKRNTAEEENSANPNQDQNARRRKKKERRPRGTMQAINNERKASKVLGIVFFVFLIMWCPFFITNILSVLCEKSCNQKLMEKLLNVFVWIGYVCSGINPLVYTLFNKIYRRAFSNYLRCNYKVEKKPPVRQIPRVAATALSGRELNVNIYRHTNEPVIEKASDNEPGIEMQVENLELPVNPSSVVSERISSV
Method: Co-immunoprecipitation was performed using protein samples (with 100-500 μg protein) from the hippocampal tissue of the Balb/c mice. Mouse monoclonal antibodies against both 5-HT2CR and D2R, D2R, or 5-HT2CR were used for precipitation with 25 μl of the slurry of protein A/G+agarose beads (SantaCruz Biotechnology, sc-2001).
Western blotting analysis after precipitation: Denatured (at 100° C. for 10 min) proteins were separated on an 8% SDS-PAGE gel, then transferred to a nitrocellulose membrane, which was then blocked with skim milk in TBST (Tris-buffered saline with 0.1% Tween 20). Next, incubation was carried out with the primary antibodies at 4° C. overnight. Finally, treatment with an HRP-conjugated secondary antibody were performed for 1 h, signals were detected using the ECL UltraSignal chemiluminescence kit (4A Biotech, cat. no. 4AW011-500), and the bands were analyzed for densities using the Image Lab software.
Next, the 293T cells were treated with TAT-D2R-KL in the presence of 5-HT2CR and D2R agonists, while treatment with TAT was used as a control. The specific process was shown in FIG. 5, where the human 293T cell line was cultured in a high-glucose modified Eagle's medium (DMEM) supplemented with 10% fetal bovine serum (FBS). The cells were maintained in an atmosphere of 95% air and 5% carbon dioxide in an incubator at 37° C. […]

CRS mice [3] = assay: Open field test (OFT, time spent in the central area); format: in vivo, mouse; settings: single intraperitoneal 3 nmol/g, 1 hour later (FIG. 13)
Method: as §1
In order to evaluate the anti-anxiety-like effect of the polypeptide of the present invention, a CRS mouse model was established using the method in Example 6. The mice were treated with TAT or TAT-D2R-KL (single intraperitoneal administration at 3 nmol/g in both cases), and 1 hour later, an open field test (OFT) for testing the time spent in the central area and an elevated plus maze (EPM) test were performed. […]
OFT (for testing the time spent in the central area): The bottom of the open field was divided into 25 squares of equal area, with the 9 squares in the middle defined as the central area. One hour after the polypeptide treatment, the mice were placed in the central area to be recorded for 5 min, and the time spent in the central area by the mice was recorded.

## TAT-D2R-KL: C-terminus of the KL (K226-L240) region of D2R fused to the transduction domain of HIV-1 Tat protein (SEQ ID NO: 5)
CRS mice [1]
  immobility time (FST): significantly reduced
SPS mice; hippocampus and cortex of SPS mice (FIG. 9)
  level of cortisol: did not significantly change
SPS mice; hippocampus and cortex of SPS mice (FIG. 10)
  level of DA: did not significantly change
SPS mice; hippocampus of SPS mice (FIG. 8)
  elevated corticosterone level: significantly reduced
SPS mice; hippocampus of SPS mice (FIG. 11)
  upregulated 5-HT: did not reduce
CRS mice [2]
  time spent in an open arm: significantly increased
D2R/5-HT2CR complex
  interaction between 5-HT2CR and D2R: significantly reduced
CRS mice [3]
  time spent in the central area: significantly increased
